In patent publication US11632954B2, “Polymorphs of 5-fluoro-4-imino-3-methyl-1 -tosyl-3,4-dihydropyrimidin-2-one” (ADAMA MAKHTESHIM LTD., priority 2017, dated 2023):

Experiments:
Format in all cases: physicochemical
[1] = TG-FTIR thermogram, beginning of decomposition; conditions: N2 atmosphere; 10° C./min, 25 to 300° C.
Experimental: FT-Raman Spectroscopy: Bruker Multi-RAM with OPUS 6.5 software; Nd:YAG 1064-nm excitation, Ge detector, 3500-50 cm-1 range; typical measurement conditions: 300 mW nominal laser power, 64 scans, 2 cm-1 resolution; samples pressed into the cavity of aluminum sample holders TG-FTIR: Netzsch Thermo-Microbalance TG 209 with Bruker FT-IR Spectrometer Vector 22; aluminum crucible (with microhole); N2 atmosphere; 10° C./min heating rate, from 25 to 300° C.

[2] = Critical water activity: seeded suspension equilibration of Hydrate vs anhydrous Forms I and II in 2-PrOH/water and THF/water; conditions: for Result (XRPD): analyzed wet
Experimental: The critical water activity between the Hydrate and anhydrous Forms I and II was attempted to be determined at room temperature in 2-PrOH/water and THF/water mixtures. […] After two additional days of stirring at RT, the solid was separated from the liquid by centrifuge filtering.
In order to clarify the root cause of the surprising results regarding the critical water activities, three further experiments were performed. The slurries at water activities of 0.5 and 0.7 were repeated using freshly prepared solvent mixtures and the suspension equilibration at a water activity of 0.7 was also performed in 2-PrOH/water mixture. The formation of thick suspension in 2-PrOH/water mixtures was experienced again; the initially obtained thick suspension turned into a well-stirred slurry upon one day of stirring. Then it was seeded with the three forms and the solid was isolated after additional two days of stirring.

[3] = Relative thermodynamic stability of Forms I and II: competitive slurry experiments; conditions: for Result (XRPD): seeded with Form I + Form II after 4 h, analyzed wet
Experimental: (§1) The relative thermodynamic stability of the polymorphs was determined by slurry experiments at RT and 5° C. […] The stability was further investigated at 5° C. and in addition, another experiment was performed at MEK at RT. MEK was chosen as suspending media because that was the only solvent where Form II was formed when slurrying the starting material. […] The experiment at 5° C. in TBME was actually carried out only as a control.

[4] = Solid-state hygroscopicity / stability against hydration
[5] = Dehydration of the Hydrate, DSC in an open pan
Experimental: DSC: TA Instruments DSC Q2000; hermetically closed gold crucible; N2 atmosphere; 10° C./min heating rate, from 20 to 190° C. The melting point is understood as the peak onset.
1) Measuring by DSC in an open pan, the water of crystallization evaporates in the temperature range of 20-100° C. Then a sharp endothermic event due to melting follows in the thermogram at 159° C. (FIG. 10).

[6] = Solubility in suspending medium; conditions: in MEK
Experimental: as §1

[7] = Solvate formation in suspension crystallization at RT
Experimental: (§2) 1) About 100 mg of 5-fluoro-4-imino-3-methyl-1-tosyl-3,4-dihydropyrimidin-2(1H)-one was suspended in 1.0 ml of 2-PrOH previously dried over 4 Å molecular sieves and the suspension was stirred for 11 d at RT and filtered through a 0.2-μm PTFE centrifuge filter and analyzed without drying, or dried in dry N2 stream at RT for 1 h.
as §2, with “2)” for “1)”, “tert-butyl methyl ether (TBME)” for “2-PrOH”, “RT,” for “RT and”, “drying.” for “drying, or dried in dry N2 stream at RT for 1 h.”
3) About 100 mg of 5-fluoro-4-imino-3-methyl-1-tosyl-3,4-dihydropyrimidin-2(1H)-one was suspended in 1.0 ml of toluene previously dried over 4 Å molecular sieves and the suspension was stirred for 11 d at RT, filtered through a 0.2-μm PTFE centrifuge filter and analyzed without drying.
Form II was prepared by suspension crystallization. About 120 mg of 5-fluoro-4-imino-3-methyl-1-tosyl-3,4-dihydropyrimidin-2(1H)-one was suspended in 0.8 ml of methyl ethyl ketone (MEK) previously dried over 4 Å molecular sieves and the suspension was stirred for 11 d at room temperature and filtered through a 0.2-μm PTFE centrifuge filter. The solid was allowed to dry under ambient conditions for 1 d.

With `Cc1ccc(S(=O)(=O)n2cc(F)c(=N)n(C)c2=O)cc1` [Form I, 5-fluoro-4-imino-3-methyl-1-tosyl-3,4-dihydropyrimidin-2(1H)-one] the “decomposition beginning at a temperature (TG-FTIR)” value (“decomposition beginning” for short) [1] was “greater than 210 °C”, the “relative thermodynamic stability among the three forms suspended” value ([2]; water activity of 0.3 and below, RT) was “thermodynamically most stable” and the “thermodynamic stability vs the hydrate form” value ([2]; water activity of 0.3 or less at room temperature) was “thermodynamically more stable than the hydrate form”. The “relative stability vs Form II in competitive slurry” value ([3]; TBME at 5° C.) was “unequivocally more stable than Form II”, the “thermodynamic stability vs polymorph Form II” value ([3]; at 5° C. and above) was “thermodynamically more stable than polymorph Form II” and the “relative thermodynamic stability vs Form II” value ([3]; water activities of 0.1 and 0.3, RT) was “more stable”. The hygroscopicity [4] was “non-hygroscopic” and the “kinetic stability against hydration” value ([4]; at higher relative humidity) was “high kinetic stability against hydration”.
In the case of `Cc1ccc(S(=O)(=O)n2cc(F)c(=N)n(C)c2=O)cc1` [Form II, 5-fluoro-4-imino-3-methyl-1-tosyl-3,4-dihydropyrimidin-2(1H)-one], the “decomposition beginning” value [1] is reported as “greater than 210 °C” and the “relative thermodynamic stability among the three forms suspended” value ([2]; water activity of 0.7, RT (Table 1), patent assumes this finding untrue) is reported as “more stable”.
With `Cc1ccc(S(=O)(=O)n2cc(F)c(=N)n(C)c2=O)cc1` [Form S1, 5-fluoro-4-imino-3-methyl-1-tosyl-3,4-dihydropyrimidin-2(1H)-one] the “decomposition beginning” value [1] was “greater than 200 °C”.
In the case of `Cc1ccc(S(=O)(=O)n2cc(F)c(=N)n(C)c2=O)cc1` [Form S5, 5-fluoro-4-imino-3-methyl-1-tosyl-3,4-dihydropyrimidin-2(1H)-one], the “decomposition beginning” value [1] is reported as “greater than 180 °C”.
With `Cc1ccc(S(=O)(=O)n2cc(F)c(=N)n(C)c2=O)cc1` [Form S8, 5-fluoro-4-imino-3-methyl-1-tosyl-3,4-dihydropyrimidin-2(1H)-one] the “decomposition beginning” value [1] was “greater than 180 °C”.
For `Cc1ccc(S(=O)(=O)n2cc(F)c(=N)n(C)c2=O)cc1` [Hydrate, 5-fluoro-4-imino-3-methyl-1-tosyl-3,4-dihydropyrimidin-2(1H)-one], the “decomposition beginning” value [1] was “greater than 190 °C”, the “relative thermodynamic stability among the three forms suspended” value ([2]; water activity of 0.5 and 0.9, RT (Table 1)) was “more stable” and the “relative stability vs Form I and Form II (ultimate finding)” value ([2]; water activity of 0.5 and higher at RT) was “more stable than the two anhydrous forms”. For the same compound, the “temperature range in which the water of crystallization evaporates” value [5] was 20-100 °C and the “form resulting from dehydration” value ([5]; melting at 159° C. coincides with Form I) was “anhydrous Form I”.
For `Cc1ccc(S(=O)(=O)n2cc(F)c(=N)n(C)c2=O)cc1` [PP539-P1, 5-fluoro-4-imino-3-methyl-1-tosyl-3,4-dihydropyrimidin-2(1H)-one], the “Result (XRPD)” value ([2]; 2PrOH/water = 89.6/10.4, aw 0.7, seeded with HH + Form I + Form II after 1 d) was “HH″ + traces”, the “Result (XRPD)” value ([2]; 2PrOH/water = 94.7/5.3, aw 0.5, RT, seeded with HH + Form I + Form II after 3 d) was “HH′” and the “Result (XRPD)” value ([2]; 2PrOH/water = 97.5/2.5, aw 0.3, RT, seeded with HH + Form I + Form II after 3 d) was “Form I”. The “Result (XRPD)” value ([2]; 2PrOH/water = 99.3/0.7, aw 0.1, RT, seeded with HH + Form I + Form II after 3 d, 2 d more stirring) was “Form I”, the “Result (XRPD)” value ([2]; THF/water = 79.7/21.3, aw 0.9, RT, seeded with HH + Form I + Form II after 3 d) was “HH″” and the “Result (XRPD)” value ([2]; THF/water = 96.4/3.6, aw 0.7, RT, seeded with HH + Form I + Form II after 3 d) was “Form II”. For the same compound, the “Result (XRPD)” value ([2]; repeat, fresh solvent, 2PrOH/water = 94.7/5.3, aw 0.5, seeded with HH + Form I + Form II after 1 d) was “HH″ + some”, the “Result (XRPD)” value ([2]; repeat, fresh solvent, THF/water = 96.4/3.6, aw 0.7, seeded with HH + Form I + Form II after 1 d) was “HH′” and the “Result (XRPD)” value ([3]; MEK (dry), 5° C.) was “Form S9 + Form I”. The “Result (XRPD)” value ([3]; MEK (dry), 22° C.) was “Form I + Form II”, the “Result (XRPD)” value ([3]; TBME (dry), 5° C.) was “Form I” and the solubility [6] was “rather high”. For the same compound, the “formation of thermodynamically stable solvates” value ([7]; with MEK at RT, Form II formed) was “does not form thermodynamically stable solvates” and the “formation of thermodynamically stable solvates” value ([7]; with toluene, 2-PrOH and TBME at RT, Form I formed) was “does not form thermodynamically stable solvates”.
